Assays:
[1] = Permeability in MDCK-MDR1 cells at 5 uM after 1 hr by LC-MS/MS analysis; type: ADME, cell-based, Canis lupus familiaris; conditions: dog, read-out: permeability
[2] = Metabolic stability in mouse liver microsomes assessed as metabolized drug level after 30 mins in presence of NADPH by LC-MS/MS analysis; type: ADME, Microsome; conditions: read-out: Drug metabolism
[3] = Metabolic stability in rat liver microsomes assessed as metabolized drug level after 30 mins in presence of NADPH by LC-MS/MS analysis; type: ADME, Microsome; conditions: read-out: Drug metabolism
[4] = Metabolic stability in dog liver microsomes assessed as metabolized drug level after 30 mins in presence of NADPH by LC-MS/MS analysis; type: ADME, Canis lupus familiaris, Microsome; conditions: read-out: Drug metabolism
[5] = Metabolic stability in human pooled liver microsomes assessed as metabolized drug level after 30 mins in presence of NADPH by LC-MS/MS analysis; type: ADME, Microsome; conditions: read-out: Drug metabolism
[6] = Drug level in PDAPP V717F transgenic mouse plasma at 10 mg/kg, sc; type: ADME, organism-based; conditions: in vivo
[7] = Drug level in PDAPP V717F transgenic mouse plasma at 30 mg/kg, sc; type: ADME, organism-based; conditions: in vivo
[8] = Drug level in PDAPP V717F transgenic mouse plasma at 100 mg/kg, sc; type: ADME, organism-based; conditions: in vivo
[9] = Drug level in PDAPP V717F transgenic mouse plasma assessed as unbound fraction at 10 mg/kg, sc; type: ADME, organism-based; conditions: in vivo
[10] = Drug level in PDAPP V717F transgenic mouse plasma assessed as unbound fraction at 30 mg/kg, sc; type: ADME, organism-based; conditions: in vivo
[11] = Drug level in PDAPP V717F transgenic mouse plasma assessed as unbound fraction at 100 mg/kg, sc; type: ADME, organism-based; conditions: in vivo
[12] = Drug level in PDAPP V717F transgenic mouse brain at 10 mg/kg, sc; type: ADME, organism-based; conditions: in vivo, read-out: Ct
[13] = Drug level in PDAPP V717F transgenic mouse brain at 30 mg/kg, sc; type: ADME, organism-based; conditions: in vivo, read-out: Ct
[14] = Drug level in PDAPP V717F transgenic mouse brain at 100 mg/kg, sc; type: ADME, organism-based; conditions: in vivo, read-out: Ct
[15] = Ratio of unbound fraction in PDAPP V717F transgenic mouse brain to plasma at 10 mg/kg, sc; type: ADME, organism-based; conditions: read-out: K(p,uu,brain)
[16] = Ratio of unbound fraction in PDAPP V717F transgenic mouse brain to plasma at 30 mg/kg, sc; type: ADME, organism-based; conditions: read-out: K(p,uu,brain)
[17] = Ratio of unbound fraction in PDAPP V717F transgenic mouse brain to plasma at 100 mg/kg, sc; type: ADME, organism-based; conditions: read-out: K(p,uu,brain)

Row | Papp at 1 h, 5 µM [1] [×10⁻⁶ cm/s] | metabolised at 0.5 h [2] [%] | metabolised at 0.5 h [3] [%] | metabolised at 0.5 h [4] [%] | metabolised at 0.5 h [5] [%] | concentration [6] [nM] | concentration [7] [nM] | concentration [8] [nM] | Cp(f) [9] [nM] | Cp(f) [10] [nM] | Cp(f) [11] [nM] | concentration [12] [nM] | concentration [13] [nM] | concentration [14] [nM] | Kp uu [15] | Kp uu [16] | Kp uu [17] | SMILES
1 | 36 | 98 | 98 | 79 | 31 | 133 | 326 | 815 | 17 | 41 | 102 | 63 | 176 | 389 | 0.18 | 0.17 | 0.16 | C[C@@H]1C[C@H]1COC(C)(C)[C@@H]1C[C@H]1[C@]12CN(c3ncccn3)C[C@H]1CSC(N)=N2
2 | 8 | 33 | 55 | 28 | 13 |  |  |  |  |  |  |  |  |  |  |  |  | C[C@@H]1C[C@H]1CNC(=O)[C@@H]1C[C@H]1[C@]12CN(c3ncccn3)C[C@H]1CSC(N)=N2
